Measurements taken from patent US10792272B2, “Methods for treatment of Clostridium difficile infections” (priority 2016, dated 2020).
≈ marks a conversion by molar mass, not a printed value. Like-named read-outs stand apart in the source and are kept apart here.

Key:
[1] = test system: C. difficile 4118 (CD4118, ATCC BAA-1870, BI/NAP1/027); assay: MIC by broth microdilution against C. difficile 4118; type: cell-based, Clostridium difficile; conditions: for MIC: Clostridioides difficile
[2] = in vivo; cited from earlier work
[3] = test system: B. thetaiotaomicron ATCC 29148; assay: microbe, parasite or virus in culture; type: cell-based; conditions: for MIC: Bacteroides thetaiotaomicron, ATCC29148, read-out: MIC B. thetaiotaomicron ATCC 29148; for MIC B. thetaiotaomicron ATCC 29148: anaerobic
[4] = test system: C. sporogenes ATCC 15579; assay: microbe, parasite or virus in culture; type: cell-based, Clostridium sporogenes; conditions: for MIC: Clostridium sporogenes, ATCC15579, read-out: MIC C. sporogenes ATCC 15579
[5] = test system: S. aureus RN4220; assay: MIC against aerobic bacteria; type: cell-based; conditions: for MIC: Staphylococcus aureus
[6] = test system: P. nigrescens ATCC 33563; assay: MIC against anaerobic bacteria; type: cell-based, Prevotella nigrescens; conditions: for MIC P. nigrescens ATCC 33563: anaerobic; for MIC: Prevotella nigrescens, ATCC33563, read-out: MIC P. nigrescens ATCC 33563
[7] = test system: A. baumannii M2; assay: MIC against aerobic bacteria; type: cell-based; conditions: for MIC A. baumannii M2: aerobic; for MIC: Acinetobacter baumannii, M2, read-out: MIC A. baumannii M2
[8] = test system: P. aeruginosa PAO1; assay: MIC against aerobic bacteria; type: cell-based, Pseudomonas aeruginosa; conditions: for MIC P. aeruginosa PAO1: aerobic; for MIC: Pseudomonas aeruginosa, PAO1, read-out: MIC P. aeruginosa PAO1
[9] = test system: B. subtilis ATCC 6051; assay: MIC against aerobic bacteria; type: cell-based, Bacillus subtilis; conditions: for MIC B. subtilis ATCC 6051: aerobic; for MIC: Bacillus subtilis, ATCC6051, read-out: MIC B. subtilis ATCC 6051
[10] = test system: P. distasonis ATCC 8503; assay: MIC against anaerobic bacteria; type: cell-based, Parabacteroides distasonis; conditions: for MIC P. distasonis ATCC 8503: anaerobic; for MIC: Parabacteroides distasonis, ATCC8503, read-out: MIC P. distasonis ATCC 8503
[11] = test system: panel of aerobic and anaerobic organisms; type: cell-based
[12] = test system: C. clostridioforme ATCC 25537; assay: MIC against anaerobic bacteria; type: cell-based, Clostridium clostridioforme; conditions: for MIC C. clostridioforme ATCC 25537: anaerobic; for MIC: Clostridium, ATCC25537, read-out: MIC C. clostridioforme ATCC 25537
[13] = test system: C. difficile 630 (CD630, ATCC BAA-1382); assay: MIC by broth microdilution against C. difficile 630; type: cell-based, Clostridium difficile; conditions: 20-24 h, 37° C.; for MIC: Clostridioides difficile, ATCCBAA1382
[14] = test system: S. epidermidis 1457; assay: MIC against aerobic bacteria; type: cell-based; conditions: for MIC S. epidermidis 1457: aerobic; for MIC: Staphylococcus epidermidis, 1457, read-out: MIC S. epidermidis 1457
[15] = test system: C. difficile strains 630 (CD630) and 4118 (CD4118); assay: MIC / growth inhibition against C. difficile, covering both strains; type: cell-based, Clostridium difficile
[16] = test system: Clostridium difficile strain 4118; assay: Minimum bactericidal concentration (MBC), logarithmic- and stationary-phase cells; type: cell-based; conditions: 3-log reduction of inoculum; for MBC: Clostridioides difficile
Protocol: The MBClog values of the protonophores were determined to be 0.25-2 μg/mL (˜4 to 8-fold greater than their respective MIC values).
Clostridium difficile strain 4118 was grown to OD600˜0.4-0.5 (logarithmic phase) or for 24 h (stationary phase), and thereafter added to two-fold serial dilutions of test compounds. Cultures were incubated for 20-24 h at 37° C., and then viable counts were enumerated on BHIS agar plates. […] MBC measurements were performed in duplicate.

[17] = test system: liver carcinoma HepG2; assay: In vitro cytotoxicity MTS assay, HepG2; conditions: for cell viability HepG2 (MTS): 16 h
[18] = test system: embryonic kidney HEK 293T/17; assay: In vitro cytotoxicity MTS assay, HEK 293T/17; conditions: for cell viability HEK 293T/17 (MTS): 16 h
[19] = test system: sheep erythrocytes; assay: Hemolysis assay; conditions: tested at 32 μg/mL; 37° C., 1 h
Protocol: Sheep red blood cells (Innovative Research, Novi, Mich., USA) were washed three times with PBS pH 7.4. A 3% cell suspension in PBS (100 μL) was added to test compounds in PBS (100 μL), and then incubated at 37° C. for 1 h. The plate was centrifuged at 500×g for 10 min, and supernatants (100 μL) were transferred to a clean 96-well plate. Hemolysis was determined by measuring absorbance at 540 nm, with 1% Triton X-100 as the positive control and 0.5% DMSO in PBS as the negative control. Hemolysis assays were performed in triplicate.

[20] = ATCCBAA1870, Table 1, strain 4118, 20-24 h, 37° C., read-out: MIC C. difficile 4118
[21] = RN4220, aerobic, read-out: MIC S. aureus RN4220
[22] = Table 1, strain 4118, 20-24 h, 37° C.
[23] = stationary-phase cells of strain 4118
[24] = logarithmic-phase cells of strain 4118, read-out: MBClog
[25] = stationary-phase cells of strain 4118, read-out: MBCstat

Cc1cc(C(C#N)c2ccc(Cl)cc2)c(Cl)cc1NC(=O)c1cc(I)cc(I)c1O (stereo not shown) [Closantel, reference compound]
MIC [1, 20]: 0.25 µg/mL (≈ 0.377 µM) | excreted unchanged in the feces [2]: ≤ 90% | MIC [3]: > 32 µg/mL | MIC [4]: 1 µg/mL (≈ 1.51 µM) | MIC [5, 21]: 0.25 µg/mL (≈ 0.377 µM)

O=C(Nc1ccc(Oc2ccc(Cl)cc2)cc1)c1cc(I)cc(I)c1 [Compound 5i]
MIC C. difficile 4118 [1, 22]: >32 µg/mL | MIC B. thetaiotaomicron ATCC 29148 [3]: >32 µg/mL | MIC P. nigrescens ATCC 33563 [6]: >32 µg/mL | MIC A. baumannii M2 [7]: >32 µg/mL | MIC P. aeruginosa PAO1 [8]: >32 µg/mL | MIC C. sporogenes ATCC 15579 [4]: >32 µg/mL | MIC B. subtilis ATCC 6051 [9]: >32 µg/mL | MIC P. distasonis ATCC 8503 [10]: >32 µg/mL | antibacterial spectrum (in words) [11]: lacked antibacterial activity | MIC C. clostridioforme ATCC 25537 [12]: >32 µg/mL | MIC C. difficile 630 ([13]; Table 1, strain 630): >32 µg/mL | MIC S. epidermidis 1457 [14]: >32 µg/mL | growth inhibitory activity against CD630 and CD4118 (in words) [15]: inactive | MIC S. aureus RN4220 ([5]; aerobic): >32 µg/mL

O=C(Nc1ccc2ccccc2c1)c1cc(I)cc(I)c1O [Compound 6a]
MIC C. difficile 4118 [1, 22]: 0.5 µg/mL (≈ 0.971 µM) | MIC B. thetaiotaomicron ATCC 29148 [3]: >32 µg/mL | MIC P. nigrescens ATCC 33563 [6]: 8 µg/mL (≈ 15.5 µM) | MIC A. baumannii M2 [7]: >32 µg/mL | MIC P. aeruginosa PAO1 [8]: >32 µg/mL | MIC C. sporogenes ATCC 15579 [4]: 8 µg/mL (≈ 15.5 µM) | MIC B. subtilis ATCC 6051 [9]: 0.06 µg/mL (≈ 0.116 µM) | MIC P. distasonis ATCC 8503 [10]: 16 µg/mL (≈ 31.1 µM) | MIC C. clostridioforme ATCC 25537 [12]: 4 µg/mL (≈ 7.77 µM) | MIC C. difficile 630 ([13]; Table 1, strain 630): 0.5 µg/mL (≈ 0.971 µM) | MIC S. epidermidis 1457 [14]: 0.06 µg/mL (≈ 0.116 µM) | growth inhibitory activity against CD630 and CD4118 (in words) [15]: high in vitro potency | MIC S. aureus RN4220 ([5]; aerobic): 0.25 µg/mL (≈ 0.485 µM)

O=C(Nc1ccc(Cl)cc1)c1cc(I)cc(I)c1O [Compound 7b]
MIC C. difficile 4118 [1, 22]: 0.5 µg/mL (≈ 1 µM) | MIC B. thetaiotaomicron ATCC 29148 [3]: >32 µg/mL | MIC P. nigrescens ATCC 33563 [6]: 4 µg/mL (≈ 8.01 µM) | MIC A. baumannii M2 [7]: 32 µg/mL (≈ 64.1 µM) | MIC P. aeruginosa PAO1 [8]: >32 µg/mL | MIC C. sporogenes ATCC 15579 [4]: 16 µg/mL (≈ 32 µM) | MIC B. subtilis ATCC 6051 [9]: 0.06 µg/mL (≈ 0.12 µM) | MIC P. distasonis ATCC 8503 [10]: 8 µg/mL (≈ 16 µM) | MIC C. clostridioforme ATCC 25537 [12]: 16 µg/mL (≈ 32 µM) | MIC C. difficile 630 ([13]; Table 1, strain 630): 0.25 µg/mL (≈ 0.501 µM) | MIC S. epidermidis 1457 [14]: ≤0.03 µg/mL | MIC S. aureus RN4220 ([5]; aerobic): 0.06 µg/mL (≈ 0.12 µM)

Cc1ncc([N+](=O)[O-])n1CCO [Metronidazole, metronidazole, reference compound]
MIC [1, 20]: 0.25 µg/mL (≈ 1.46 µM) | MIC [3]: 1 µg/mL (≈ 5.84 µM) | MIC [4]: 0.25 µg/mL (≈ 1.46 µM) | antibacterial spectrum (in words) [11]: mainly targeted anaerobic bacteria | MIC ([13]; Table 1, strain 630): 0.25 µg/mL (≈ 1.46 µM) | MBCstat [16, 23]: >32 µg/mL | MIC [5, 21]: > 32 µg/mL

O=C(Nc1ccc([N+](=O)[O-])cc1Cl)c1cc(Cl)ccc1O [Niclosamide, niclosamide]
MIC [1, 20]: 4 µg/mL (≈ 12.2 µM) | cell viability HepG2 (MTS) ([17]; 0.125 μg/mL): significant decrease in viability | cell viability HEK 293T/17 (MTS) ([18]; 0.125 μg/mL): significant decrease in viability

O=C(Nc1ccc(Oc2ccc(Cl)cc2)c(Cl)c1)c1cc(I)cc(I)c1O [Rafoxanide, rafoxanide, reference compound]
MIC ([1]; ATCCBAA1870): 0.13 µg/mL (≈ 0.208 µM) | MIC ([1]; ATCCBAA1870, read-out: MIC C. difficile 4118): 0.13 µg/mL (≈ 0.208 µM) | MIC [3]: > 32 µg/mL | MIC [6]: 8 µg/mL (≈ 12.8 µM) | MIC [7]: > 32 µg/mL | MIC [8]: > 32 µg/mL | MIC [4]: 1 µg/mL (≈ 1.6 µM) | MIC [9]: ≤ 0.03 µg/mL | MIC [10]: 8 µg/mL (≈ 12.8 µM) | MIC [12]: 1 µg/mL (≈ 1.6 µM) | rupture of red blood cells (hemolysis) [19]: did not cause rupture of red blood cells | MIC [14]: ≤ 0.03 µg/mL | cell viability HepG2 (MTS) ([17]; 8 μg/mL): no apparent effect on mammalian cell viability | in vitro toxicity toward HepG2 compared with niclosamide ([17]; relative to niclosamide): comparably lower in vitro toxicities | MBC [16, 24]: 0.5 µg/mL (≈ 0.799 µM) | MBC [16, 25]: 1 µg/mL (≈ 1.6 µM) | cell viability HEK 293T/17 (MTS) ([18]; 8 μg/mL): no apparent effect on mammalian cell viability | in vitro toxicity toward HEK 293T/17 compared with niclosamide ([18]; relative to niclosamide): comparably lower in vitro toxicities | MIC [5, 21]: 0.25 µg/mL (≈ 0.399 µM)

CN[C@H](CC(C)C)C(=O)N[C@H]1C(=O)N[C@@H](CC(N)=O)C(=O)N[C@H]2C(=O)N[C@H]3C(=O)N[C@H](C(=O)N[C@H](C(=O)O)c4cc(O)cc(O)c4-c4cc3ccc4O)[C@H](O)c3ccc(c(Cl)c3)Oc3cc2cc(c3O[C@@H]2O[C@H](CO)[C@@H](O)[C@H](O)[C@H]2O[C@H]2C[C@](C)(N)[C@H](O)[C@H](C)O2)Oc2ccc(cc2Cl)[C@H]1O [Vancomycin, vancomycin, reference compound]
MIC ([1]; ATCCBAA1870): 2 µg/mL (≈ 1.38 µM) | MIC ([1]; ATCCBAA1870, 20-24 h, 37° C., read-out: MIC C. difficile 4118): 2 µg/mL (≈ 1.38 µM) | MIC [3]: > 32 µg/mL | MIC [6]: > 32 µg/mL | MIC [7]: > 32 µg/mL | MIC [8]: > 32 µg/mL | MIC [4]: 2 µg/mL (≈ 1.38 µM) | MIC [9]: 0.13 µg/mL (≈ 0.0897 µM) | MIC [10]: > 32 µg/mL | antibacterial spectrum (in words) [11]: Gram-positive organisms | MIC [12]: 0.5 µg/mL (≈ 0.345 µM) | MIC [13]: 1 µg/mL (≈ 0.69 µM) | MIC [14]: 2 µg/mL (≈ 1.38 µM) | MBC [16, 24]: 8 µg/mL (≈ 5.52 µM) | MBC [16, 25]: > 32 µg/mL | MBCstat [16, 23]: >32 µg/mL | MIC ([15]; Clostridioides difficile, read-out: MIC against C. difficile): 1 to 2 µg/mL (≈ 0.69 to 1.38 µM) | MIC ([5]; RN4220, read-out: MIC S. aureus RN4220): 1 µg/mL (≈ 0.69 µM)
